Data: patent US20250179103A1, “6-OXODECAHYDROPYRROLO[1,2-A][1,5]DIAZOCINE AND 6-OXODECAHYDRO-4H-PYRROLO[2,1-D][1,5]THIAZOCINE DERIVATIVES AS STAT3 AND STAT6 MODULATORS FOR THE TREATMENT OF CANCER AND INFLAMMATORY CONDITIONS” (Recludix Pharma, Inc., priority 2022, published 2025)

Legend:
[1] = target: T1, Recombinant STAT3 protein (STAT3(G127-I722)) (Homo sapiens, UniProt P40763); experiment: STAT3 Fluorescence Polarization (FP) Assay; format: binding; details: STAT3(G127-I722) 25 nM, probe 5-FAM-GpYLPQTV-NH2 2 nM, 45-minute incubation
T1 construct: Recombinant STAT3 protein (STAT3(G127-I722))
Summary of the method: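 STAT3(G127-I722), 25 nM, was mixed with 2 nM 5-FAM-GpYLPQTV-NH2 probe in HEPES pH 7.4 buffer with 1% DMSO and serially diluted compound. FP (mP) was read after 45 min at room temperature. IC50 came from nonlinear regression.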

[2] = target: T2, Recombinant STAT6 protein (STAT6(W123-T658)) (Homo sapiens, UniProt P42226); experiment: STAT6 Fluorescence Polarization (FP) Assay; format: binding; details: STAT6(W123-T658) 250 nM, probe 5-FAM-ApYKPFQDLI-NH2 2 nM, 45-minute incubation
T2 construct: Recombinant STAT6 protein (STAT6(W123-T658))
T2 sequence (P42226 123-658): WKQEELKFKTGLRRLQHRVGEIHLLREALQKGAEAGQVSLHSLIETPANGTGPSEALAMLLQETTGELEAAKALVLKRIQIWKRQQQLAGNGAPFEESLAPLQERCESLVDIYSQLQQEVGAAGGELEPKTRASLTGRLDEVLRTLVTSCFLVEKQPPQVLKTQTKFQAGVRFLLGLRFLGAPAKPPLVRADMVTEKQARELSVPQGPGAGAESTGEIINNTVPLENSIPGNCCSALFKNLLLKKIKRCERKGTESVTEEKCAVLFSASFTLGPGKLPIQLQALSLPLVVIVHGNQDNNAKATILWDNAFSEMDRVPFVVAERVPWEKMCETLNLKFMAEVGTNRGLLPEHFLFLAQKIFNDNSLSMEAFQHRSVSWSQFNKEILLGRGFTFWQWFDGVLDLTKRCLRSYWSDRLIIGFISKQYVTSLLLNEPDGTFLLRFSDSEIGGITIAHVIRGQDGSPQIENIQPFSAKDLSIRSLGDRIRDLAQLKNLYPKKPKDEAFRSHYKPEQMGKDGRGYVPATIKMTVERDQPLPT
Summary of the method: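 Displacement of a fluorescent phosphotyrosine peptide (5-FAM-ApYKPFQDLI-NH2, 2 nM) from STAT6(W123-T658) (250 nM), 1% DMSO, pH 7.4 HEPES buffer. After 45 min at room temperature, polarization (mP) was plotted versus log compound concentration and fitted by nonlinear regression to give IC50.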

T1 sequence (P40763 127-722): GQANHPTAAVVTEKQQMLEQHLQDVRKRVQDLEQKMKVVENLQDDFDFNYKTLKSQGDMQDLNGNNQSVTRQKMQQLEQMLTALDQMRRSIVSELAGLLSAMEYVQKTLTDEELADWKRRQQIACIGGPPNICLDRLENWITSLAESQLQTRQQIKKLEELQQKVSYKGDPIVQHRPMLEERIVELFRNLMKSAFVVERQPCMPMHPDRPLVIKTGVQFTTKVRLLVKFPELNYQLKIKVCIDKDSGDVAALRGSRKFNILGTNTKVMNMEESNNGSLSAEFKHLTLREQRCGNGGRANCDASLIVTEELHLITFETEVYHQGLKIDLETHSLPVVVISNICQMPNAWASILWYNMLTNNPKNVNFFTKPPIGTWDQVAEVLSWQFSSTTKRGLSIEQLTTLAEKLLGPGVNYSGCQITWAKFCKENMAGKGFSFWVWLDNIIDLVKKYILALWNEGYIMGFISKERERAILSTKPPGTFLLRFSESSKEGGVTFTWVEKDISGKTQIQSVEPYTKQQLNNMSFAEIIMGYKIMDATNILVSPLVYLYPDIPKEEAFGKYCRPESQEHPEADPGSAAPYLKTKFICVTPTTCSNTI

Structure (SMILES) | IC50 [1] [nM] | IC50 [2] [nM]
CC(=O)N1CC[C@H]2CC[C@@H](C(=O)N(C)c3ccc(Cl)cc3)N2C(=O)[C@@H](NC(=O)c2cc3cc(C(F)(F)P(=O)(O)O)ccc3s2)C1 [Compound 187, ((2-(((5S,8S,10aR)-3-acetyl-8-((4-chlorophenyl)(methyl)carbamoyl)-6-oxodecahydropyrrolo[1,2-a][1,5]diazocin-5-yl)carbamoyl)benzo[b]thiophen-5-yl)difluoromethyl)phosphonic acid] | 1000 to 10000 | 300 to 3000
CN(CC(C)(C)C#N)C(=O)[C@@H]1CC[C@@H]2CCN(CC(F)F)C[C@H](NC(=O)c3cc4cc(C(F)(F)P(=O)(O)O)ccc4s3)C(=O)N21 [Compound 264, ((2-(((5S,8S,10aR)-8-((2-cyano-2-methylpropyl)(methyl)carbamoyl)-3-(2,2-difluoroethyl)-6-oxodecahydropyrrolo[1,2-a][1,5]diazocin-5-yl)carbamoyl)benzo[b]thiophen-5-yl)difluoromethyl)phosphonic acid] | 1000 to 10000 | 300 to 3000
CC(=O)N1CC[C@H]2CC[C@@H](C(=O)Nc3ccc4nccnc4c3)N2C(=O)[C@@H](NC(=O)c2cc3cc(C(F)(F)P(=O)(O)O)ccc3s2)C1 [Compound 69, ((2-(((5S,8S,10aR)-3-aceytl-6-oxo-8-(quinoxalin-6-ylcarbamoyl)decahydropyrrolo[1,2-a][1,5]diazocin-5-yl)carbamoyl)benzo[b]thiophen-5-yl)difluoromethyl)phosphonic acid] | 1000 to 10000 | 300 to 3000
CC(=O)N1CC[C@H]2CC[C@@H](C(=O)Nc3cnc(S(C)(=O)=O)nc3)N2C(=O)[C@@H](NC(=O)c2cc3cc(C(F)(F)P(=O)(O)O)ccc3s2)C1 [Compound 94, ((2-(((5S,8S,10aR)-3-acetyl-8-((2-(methylsulfonyl)pyrimidin-5-yl)carbamoyl)-6-oxodecahydropyrrolo[1,2-a][1,5]diazocin-5-yl)carbamoyl)benzo[b]thiophen-5-yl)difluoromethyl)phosphonic acid] | 1000 to 10000 | 300 to 3000
N#CC1CN(C(=O)C2CCC3CCS(=N)(=O)CC(NC(=O)c4cc5cc(C(F)(F)P(=O)(O)O)ccc5s4)C(=O)N32)CC1c1ccccc1 (single isomer, unassigned) [Compound 7] | 1000 to 10000 | 300 to 3000
CC(=O)N1CC[C@H]2CC[C@@H](C(=O)N3C[C@H](c4cc[nH]c(=O)c4)[C@@H](C#N)C3)N2C(=O)[C@@H](NC(=O)c2ccc3ccc(C(F)(F)P(=O)(O)O)cc3c2)C1 (single isomer, unassigned) [Compound 38, ((7-(((5S,8S,10aR)-3-acetyl-8-((3R,4S or 3S,4R)-3-cyano-4-(2-oxo-1,2-dihydropyridin-4-yl)pyrrolidine-1-carbonyl)-6-oxodecahydropyrrolo[1,2-a][1,5]diazocin-5-yl)carbamoyl)naphthalen-2-yl)difluoromethyl)phosphonic acid] | 1000 to 10000 | ≤ 300
Cc1ccc2[nH]nc(C(=O)N3CC[C@H](NC(=O)c4ccc5ccc(C(F)(F)P(=O)(O)O)cc5c4)C(=O)N4[C@H](CC[C@H]4C(=O)N4C[C@H](c5ccccc5)[C@@H](C#N)C4)C3)c2c1 (relative stereo) [Compound 233, ((7-(((5S,8S,10aR)-8-(rel-tran)-3-cyano-4-phenylpyrrolidine-1-carbonyl)-2-(5-methyl-1H-indazole-3-carbonyl)-6-oxodecahydropyrrolo[1,2-a][1,4]diazocin-5-yl)carbamoyl)naphthalen-2-yl)difluoromethyl)phosphonic acid] | 1000 to 10000 | ≤ 300
CNC(=O)C[C@@H](Cc1ccc(OC)cc1)NC(=O)[C@@H]1CC[C@@H]2CCN(C(=O)c3n[nH]c4ccc(C)cc34)C[C@H](NC(=O)c3ccc4ccc(C(F)(F)P(=O)(O)O)cc4c3)C(=O)N21 [Compound 229, (difluoro(7-(((5S,8S,10aR)-8-(((R)-1-(4-methoxyphenyl)-4-(methylamino)-4-oxobutan-2-yl)carbamoyl)-3-(5-methyl-1H-indazole-3-carbonyl)-6-oxodecahydropyrrolo[1,2-a][1,5]diazocin-5-yl)carbamoyl)naphthalen-2-yl)methyl)phosphonic acid] | 1000 to 10000 | ≤ 300
CC(=O)N1CC[C@H]2CC[C@@H](C(=O)N3CCN(C(=O)OCc4ccccc4)CC3)N2C(=O)[C@@H](NC(=O)c2cc3cc(C(F)(F)P(=O)(O)O)ccc3[nH]2)C1 [Compound 35, ((2-(((5S,8S,10aR)-3-acetyl-8-(4-((benzyloxy)carbonyl)piperazine-1-carbonyl)-6-oxodecahydropyrrolo[1,2-a][1,5]diazocin-5-yl)carbamoyl)-1H-indol-5-yl)difluoromethyl)phosphonic acid] | 1000 to 10000 | 300 to 3000
Cc1ccc2onc(C(=O)N3CC[C@H]4CC[C@@H](C(=O)N5CCOC(Cc6ccccc6)C5)N4C(=O)[C@@H](NC(=O)c4ccc5ccc(C(F)P(=O)(O)O)cc5c4)C3)c2c1 (stereo partly drawn) [Compound 373, ((7-(((5S,8S,10aR)-8-(2-benzylmorpholine-4-carbonyl)-3-(5-methylbenzo[d]isoxazole-3-carbonyl)-6-oxodecahydropyrrolo [1,2-a][1,5]diazocin-5-yl)carbamoyl)naphthalen-2-yl)fluoromethyl) phosphonic acid] | > 10000 | ≤ 300
CC(=O)N1CC[C@H]2CC[C@@H](C(=O)N(C)c3ccc(C(C)(C)CO)cc3)N2C(=O)[C@@H](NC(=O)c2cc3cc(C(F)(F)P(=O)(O)O)ccc3s2)C1 [Compound 156, ((2-(((5S,8S,10aR)-3-acetyl-8-((4-(1-hydroxy-2-methylpropan-2-yl)phenyl)(methyl)carbamoyl)-6-oxodecahydropyrrolo[1,2-a][1,5]diazocin-5-yl)carbamoyl)benzo[b]thiophen-5-yl)difluoromethyl)phosphonic acid] | 1000 to 10000 | 300 to 3000
CC(=O)N1CC[C@H]2CC[C@@H](C(=O)N(C)c3ccc(C(C)(C)C)c(Cl)c3)N2C(=O)[C@@H](NC(=O)c2cc3cc(C(F)(F)P(=O)(O)O)ccc3s2)C1 [Compound 160, ((2-(((5S,8S,10aR)-3-acetyl-8-((4-(tert-butyl)-3-chlorophenyl)(methyl)carbamoyl)-6-oxodecahydropyrrolo[1,2-a][1,5]diazocin-5-yl)carbamoyl)benzo[b]thiophen-5-yl)difluoromethyl)phosphonic acid] | 1000 to 10000 | 300 to 3000
N#CC1CN(C(=O)C2CCC3CCNCC(NC(=O)c4cc5cc(C(F)(F)P(=O)(O)O)ccc5s4)C(=O)N32)CC1c1ccccc1 (mixture of isomers) [Compound 10, ((2-(((5S,8S,10aR)-8-((rel-trans)-3-cyano-4-phenylpyrrolidine-1-carbonyl)-6-oxodecahydropyrrolo[1,2-a][1,5]diazocin-5-yl)carbamoyl)benzo[b]thiophen-5-yl)difluoromethyl)phosphonic Acid] | 1000 to 10000 | ≤ 300
Cc1ccc2onc(C(=O)N3CC[C@H]4CC[C@@H](C(=O)N5CC6CCC(C5)O6)N4C(=O)[C@@H](NC(=O)c4ccc5ccc([C@H](F)P(=O)(O)O)cc5c4)C3)c2c1 [Compound 377, ((1R)-(7-(((5S,8S,10aR)-8-(8-oxa-3-azabicyclo[3.2.1]octane-3-carbonyl)-3-(5-methylbenzo[d]isoxazole-3-carbonyl)-6-oxodecahydropyrrolo [1,2-a][1,5]diazocin-5-yl)carbamoyl)naphthalen-2-yl)fluoromethyl)phosphonic acid] | > 10000 | ≤ 300
CC(=O)N1CC[C@H]2CC[C@@H](C(=O)Nc3ccc4cnccc4c3)N2C(=O)[C@@H](NC(=O)c2cc3cc(C(F)(F)P(=O)(O)O)ccc3s2)C1 [Compound 158, ((2-(((5S,8S,10aR)-3-acetyl-8-(isoquinolin-6-ylcarbamoyl)-6-oxodecahydropyrrolo[1,2-a][1,5]diazocin-5-yl)carbamoyl)benzo[b]thiophen-5-yl)difluoromethyl)phosphonic acid] | 100 to 1000 | 300 to 3000
CC(=O)N1CC[C@H]2CC[C@@H](C(=O)N3C[C@H](c4ccccc4)[C@@H](C#N)C3)N2C(=O)[C@@H](NC(=O)c2cc3cc(C(F)(F)P(=O)(O)O)ccc3s2)C1 [Compound 124, ((2-(((5S,8S,10aR)-3-acetyl-8-((3R,4S)-3-cyano-4-phenylpyrrolidine-1-carbonyl)-6-oxodecahydropyrrolo[1,2-a][1,5]diazocin-5-yl)carbamoyl)benzo[b]thiophen-5-yl)difluoromethyl)phosphonic acid] | 1000 to 10000 | ≤ 300
